This is an account of results in PubChem BioAssay AID463199 (Broad Institute, 2010).

The structures appear in SMILES notation. The source made the active and inactive calls.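 The calls were made as follows: active = AC50, the dose giving half-maximal effect, exceeds a fixed cutoff for a compound that rescues yeast growth under heat; inactive = the rest, inconclusive results apart.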

The assay has as its system S. cerevisiae Burl-1 ts mutant growth, BacTiter-Glo, 38.5C 24 h. In words: restored growth of temperature-sensitive Burl-1 yeast – whole organism, S. cerevisiae, Burl-1 ts mutant, luminescence, counter-screen for SUMOylation pathway inhibitor project, dose response (AID 463199). In general terms: A counterscreen serves to expose hits that act by an unwanted route or on another target.
The term AC50 denotes the concentration at which the activity in the assay is half-maximal. As for `CCCc1cc(=O)oc2c3c(c4c(c12)OC(C)(C)C=C4)OC(C)C(C)C3O` (stereo unspecified), the AC50 is > 42 µM (inactive). For `CCOC(=O)C1CCN(C(=O)COc2ccc(S(=O)(=O)N3CCOCC3)cc2C)CC1` the value was > 42 µM (inactive); for `CC(=O)c1cccc(N2C(=NC(=O)C3CCCCC3)SC3CS(=O)(=O)CC32)c1` (stereo unspecified), > 42 µM (inactive). For `COc1ccc(Cl)cc1NC(=O)C1CCCN(c2cc(C)nc3ncnn23)C1` (stereo unspecified) the value was > 42 µM (inactive); for `CCC1=Nc2cc(C(=O)NCc3ccco3)ccc2Sc2ccccc21`, > 42 µM (inactive); for `Cc1ccc(NC(=S)N2CCN(Cc3ccc4c(c3)OCO4)CC2)c(C)c1`, > 42 µM (inactive). Take `Cc1nnc(NC(=O)c2cccc(S(=O)(=O)N3CCCC3)c2)s1`: the AC50 is > 42 µM (inactive).

As to `O=C(CN1CCN(Cc2ccc(Cl)cc2)CC1)N/N=C/c1ccncc1`, the AC50 was > 42 µM (inactive). On to `Cc1ccccc1-c1nc2ccc(Cl)cc2c(=O)n1O`, for which the AC50 was > 42 µM (inactive). For `CCC(=O)N1CCc2cc(S(=O)(=O)CCC(=O)Nc3cccc(C)n3)ccc21` the value was > 42 µM (inactive). For `O=C(Nc1ccc(Cl)cc1)N1CCC(c2nc(-c3ccc(F)cc3)no2)CC1` the value was > 42 µM (inactive); for `O=C(OC1CCOC1=O)c1cccc(S(=O)(=O)Nc2ccc(F)cc2)c1` (stereo unspecified), > 42 µM (inactive); for `Nc1cc[n+](CC(=O)Nc2ccccc2)cc1`, > 42 µM (inactive).

As to `N/C(=N\NC(=O)c1sccc1OCc1ccc(Cl)cc1Cl)c1ccccn1`, the AC50 is > 42 µM (inactive). For `CN(C(=O)COc1cc(=O)n(C)c2ccccc12)c1ccc(Cl)cc1` the value was > 42 µM (inactive); for `CN(C(=O)c1ccncc1)c1nnc(-c2cnccn2)s1`, > 42 µM (inactive); for `O=C(CSc1nnc(CNC(=O)c2ccccc2)o1)NCc1ccco1`, > 42 µM (inactive). With `CN(c1cccnc1)c1ncnc2[nH]ncc12` the figure was > 42 µM (inactive); with `CCCCOc1ccc(C(O)C(CN2CCOCC2)c2ccccc2)cc1` (stereo unspecified), > 42 µM (inactive); with `COc1ccccc1/C=C/C(=O)c1c2c(c(C)[nH]c1=O)CCCC2`, > 42 µM (inactive). For `CCOC(=O)CSc1nc2ccccc2c(=O)n1CC(C)C` the value was > 42 µM (inactive); for `Cn1c(NCc2ccco2)nc2c1c(=O)n(Cc1ccc(Cl)cc1)c(=O)n2C`, > 42 µM (inactive). Regarding `CCOC(=O)c1sc(NC(=O)C(CC)OC(=O)c2ccco2)nc1C` (stereo unspecified), the AC50 is > 42 µM (inactive).

Turning to `O=C(CC(c1ccccc1)c1ccccc1O)NCCN1CCOCC1` (stereo unspecified), the AC50 was > 42 µM (inactive). As for `C=C(C)Cn1c(SCC(=O)N/N=C/c2ccccc2OCC(=O)O)nnc1-c1ccc(Br)cc1`, the AC50 was > 42 µM (inactive).

With `COc1ccc(/C=N/NC(=O)CCC(=O)Nc2ccccc2)cc1OC`, the AC50 is > 42 µM (inactive). With `O=C1c2ccccc2S(=O)(=O)N1Cc1cc(=O)n2ccsc2n1` the figure was > 42 µM (inactive); with `O=c1cc(-c2ccccc2)nc(N2CCN(Cc3ccccc3)CC2)[nH]1`, > 42 µM (inactive); with `Cc1ccc(C(C(=O)NC2CCCCC2)N(CCC(C)C)C(=O)CNC(=O)c2ccco2)o1` (stereo unspecified), > 42 µM (inactive). As for `COc1ccc(NC(=O)CSc2nnc(-c3ccccn3)n2-c2ccccc2)cc1OC`, the AC50 was > 42 µM (inactive). With `Cn1c(C(=O)NCCc2ccsc2)cc2c(=O)n(C)c3ccccc3c21` the figure was > 42 µM (inactive). With `Cc1c(C)c2c(c(C)c1O)CCC(C)(C(=O)O)O2` (stereo unspecified) the figure was > 42 µM (inactive). For `O=C(N/N=C/c1ccccc1)c1[nH]c2ccc(Br)cc2c1-c1ccccc1` the value was > 42 µM (inactive); for `O=C1c2ccccc2C(=O)N1CCCCSc1nc2ccccc2c(=O)n1CCCN1CCOCC1`, > 42 µM (inactive). On to `CCC1(c2ccccc2)NC(=O)N(CC(=O)N(C)CC(=O)Nc2ccc(F)c(F)c2F)C1=O` (stereo unspecified), for which the AC50 was > 42 µM (inactive). For the compound `COc1ccc(Cc2nnc(NCCO)[nH]c2=O)cc1`, the AC50 is > 42 µM (inactive). Regarding `Cc1cnc(=O)[nH]c1SCC(=O)c1ccc(F)cc1`, the AC50 is > 42 µM (inactive). With `COc1cccc2[nH]c(=O)c(-c3ccccc3)cc12` the figure was > 42 µM (inactive).

In the case of `O=C(CCCC(=O)N/N=C/c1ccccc1C(=O)O)N/N=C/c1ccccc1C(=O)O`, the AC50 was > 42 µM (inactive). For `CCCCCCCCCCOC(=O)Cn1c(COc2ccc(OC)cc2)[n+](C)c2ccccc21`, the AC50 was > 42 µM (inactive). With `Cc1ccc(S(=O)(=O)CCC(=O)OCC(=O)N(C)C2CCS(=O)(=O)C2)cc1` (stereo unspecified) the figure was > 42 µM (inactive); with `COc1cc(/C=C(\NC(=O)c2ccccc2)C(=O)Nc2nccs2)ccc1OC(C)=O`, > 42 µM (inactive). For the compound `CCOc1ccccc1N(CC(=O)Nc1ccccc1C(=O)N1CCCC1)S(C)(=O)=O`, the AC50 was > 42 µM (inactive).

`COc1cc(/C=C(\C#N)C(=O)Nc2ccc(C(=O)O)cc2)ccc1OC(=O)c1cccc(F)c1`: the AC50 was > 42 µM (inactive). With `CCOC(=O)N1CCN(C(=O)c2ccc(OC)c(OC)c2)CC1` the figure was > 42 µM (inactive); with `Cc1ccc(C(=O)NCCCN2CCOCC2)cc1`, > 42 µM (inactive); with `CC1CCCCN1C(=O)C(Cc1ccccc1)N1C(=O)C2CCCCC2C1=O` (stereo unspecified), > 42 µM (inactive).

For `O=C(CCn1cnnn1)Nc1ccc(Cl)cc1Cl`, the AC50 is > 42 µM (inactive). For `Nc1cc(C(=O)OCC(=O)N2CCOCC2)ccc1Cl` the value was > 42 µM (inactive); for `CCN(CC)c1ccc(C=C2C(=O)OC(c3ccccc3)OC2=O)cc1` (stereo unspecified), > 42 µM (inactive). With `O=C(O)CCC(=O)Nc1cccc(C(=O)Nc2ccc(Br)cc2)c1` the figure was > 42 µM (inactive). With `CS(=O)(=O)C1=NSC2=NC(=O)/C(=C\c3ccc(OS(=O)(=O)c4ccccc4)cc3)C(=N)N21` the figure was > 42 µM (inactive); with `Cc1ccc(Nc2cc(C)nc3c(C)ccc([N+](=O)[O-])c23)cc1`, > 21 µM (inactive). Consider `C=CCN1C(=O)/C(=C2/Sc3ccc(OC)cc3N2C)SC1=Nc1ccccc1`, for which the AC50 is > 42 µM (inactive). For `CCCCn1c2c(c(=O)n(C)c1=O)C(c1ccc(OC)cc1)N1CCCCCC1=N2` (stereo unspecified) the value was > 42 µM (inactive); for `CN(C)C(=O)c1c2c(nc3ccccc13)CCCC2`, > 42 µM (inactive); for `Fc1cccc(Nc2ncnc3sccc23)c1`, > 42 µM (inactive). With `COc1cc(C(=O)NCCC2=CCCCC2)cc(OC)c1OC`, the AC50 is > 42 µM (inactive). For `COC(=O)c1ccccc1NC(NC(=O)c1ccco1)C(=O)c1ccccc1` (stereo unspecified) the value was > 42 µM (inactive); for `CN(C)C(=O)CN1C(=O)c2cccc3cccc1c23`, > 42 µM (inactive). With `O=C(NCc1ccccc1)c1cccc(COc2ccc(Cl)cc2)c1` the figure was > 42 µM (inactive); with `CCCCC(=O)Nc1cc(OC)c(NC(=O)C2CCCCC2)cc1OC`, > 42 µM (inactive). With `COc1cccc(S(=O)(=O)Nc2cccc(C(=O)N3CCOCC3)c2)c1` the figure was > 42 µM (inactive).

On to `COc1ccc(N=C2SC(C(=O)O)CC(=O)N2Cc2ccc(OC)c(OC)c2)cc1` (stereo unspecified), for which the AC50 is > 42 µM (inactive).

Turning to `Cc1ccnc(NC(=O)c2ccc(Br)s2)c1`, the AC50 is > 42 µM (inactive). Regarding `CCCCCCCN1C(Nc2ccccc2)=NC[C@@H]1CC(C)C`, the AC50 was > 21 µM (inactive). With `O=C(O)c1cc(Oc2ccc(C(F)(F)F)cc2Cl)ccc1[N+](=O)[O-]` the figure was > 42 µM (inactive); with `Cc1ccccc1-n1ncc2c([N+](=O)[O-])cc([N+](=O)[O-])cc21`, > 42 µM (inactive). With `O=C(CP(=O)(c1ccccc1)c1ccccc1)N1CCOCC1` the figure was > 42 µM (inactive); with `Cc1cc(C(=O)NN)n[nH]1`, > 42 µM (inactive); with `NC(=O)c1nsc(C(=O)N(Cc2ccc(F)cc2)C(C(=O)NC2CCCC2)c2ccco2)c1N` (stereo unspecified), > 42 µM (inactive). With `C[C@@]12C(=O)Nc3cc(Cl)ccc3C(=O)N1[C@H]1c3ccccc3OC[C@@H]1[C@@H]2c1ccccc1`, the AC50 is > 42 µM (inactive).

Regarding `Cn1cc(C(=O)Cc2ccccc2)c2ccccc21`, the AC50 was > 42 µM (inactive). For `COc1ccc(-n2c3c(cc(C(=O)NCC(=O)c4ccccc4)c2=O)C(=O)CC(C)(C)C3)cc1` the value was > 42 µM (inactive). With `CS(=O)(=O)NCc1ccc(C(=O)NC2CCCCC2)cc1` the figure was > 42 µM (inactive).

For the compound `Cc1onc(-c2ccccc2)c1C(=O)N/N=C/C=C/c1ccccc1`, the AC50 is > 42 µM (inactive). With `Cc1ccccc1C(=O)NN(C)c1nc2ccccc2nc1C(F)(F)F` the figure was > 42 µM (inactive). For `O=C(/C=C/c1ccc(Cl)cc1)NCc1ccncc1` the value was 42 µM. For `O=C(COC(=O)CNC(=O)c1ccc(Cl)cc1)Nc1ncc(C(F)(F)F)cc1Cl`, the AC50 was > 42 µM (inactive).

As for `CCOc1ccc2[nH]c(=O)c(CN(Cc3ccco3)C(CC)c3nnnn3Cc3ccccc3)cc2c1` (stereo unspecified), the AC50 was > 42 µM (inactive). For `CC1(C)C2CC[C@]3(C)C(CC=C4[C@@H]5C[C@@](C)(CO)[C@@H](O)C[C@]56C[C@@H](OC6=O)[C@]43C)[C@@]2(C)CC[C@@H]1O` (stereo partly specified) the value was > 42 µM (inactive).

In the case of `O=C(NCC1CCCO1)c1nn2c(C(F)(F)F)cc(-c3cc(Br)cs3)nc2c1Br` (stereo unspecified), the AC50 is > 42 µM (inactive). With `CC(=O)c1ccc(N=C2SCCCN2C(=O)C2CCCC2)cc1` the figure was > 42 µM (inactive). With `Cc1noc(C)c1S(=O)(=O)N1CCCC(C(=O)NCC2CCCO2)C1` (stereo unspecified) the figure was > 42 µM (inactive); with `Nc1cc(-c2ccc(Cl)cc2)nn1S(=O)(=O)c1ccc(Cl)cc1`, > 42 µM (inactive). With `COc1ccc(CCC(=O)Nc2ccc3c(c2)OCO3)cc1` the figure was > 42 µM (inactive).
